# Experimental data reported in US6610702B2, “Ammonium salts of inositol hexaphosphate, and uses thereof” (GMP Oxycell, Inc., priority 2000, dated 2003).
# Structures can show the parent of a compound that is named as a salt. Where two headings read alike, the source gives them in different places.
# Legend:
# Free Hemoglobin = Free Hemoglobin (Homo sapiens, UniProt P68871); assay: P50 of free hemoglobin in the presence of effector; assay type: biochemical; settings: fHb
# whole blood [1] = assay: P50 of whole blood pre-incubated with effector (Hemox Analyzer); assay type: cell-based
# Protocol: Whole blood was collected from one subject. The blood was stored in a Vacutainer with Solution A (ACD) and stored at 4-8° C.
# Preparation of Effector Stock: Effector stock was prepared at 100-120 mM (Molal solution) using water or Bis-Tris Buffer. Effector characteristics prior to incubation were:
# Incubation: Whole blood (75-300 μL) was incubated with 200 μL of effector at 37° C. for 5-10 min. (see Summary of Results below).
# (§1) Washes: After incubation of whole blood with/without effector, blood cells were washed four times with Saline buffer or HBS (BSA) by centrifugal pelleting to remove exogenous effector and to evaluate hemolysis. After final centrifugation, pellet was not resuspended.
# Blood Oxygen Dissociation Reading: Blood Oxygen Dissociation of samples were determined using a Hemox Analizer Model B (TCS Medical Products Company, New Hope, Pa.). The sample chamger contained:
# 10-20 μL Pelleted Blood Cells incubated with Effector
# All readings were made at 36.7-37.2° C. and at pH 7.28-7.32. The P50s were calculated from the Dissociation Curves compared to same day control P50.
# stripped hemoglobin = stripped hemoglobin (Homo sapiens, UniProt P68871); settings: pH 7.4, cited from earlier work
# [2] = 1-octanol/aqueous phase partition coefficients of IHP salts measured by 31P-NMR; assay type: physicochemical
# Excerpt: Partition coefficients measurements. We synthesized a first series of IHP derivatives, ionically associated to different aliphatic and aromatic amines as well as amino-esters. Taking advantage of the 6 phosphate groups present in the IHP molecule, we measured, by ^31P-NMR, the partition coefficients of IHP salts between a 1-octanol phase and two different aqueous phases: water and human serum. In FIG. 11 are represented the structures of the different amines preassociated to IHP and the corresponding partition coefficients Kow and Kos. These coefficients are measured after equilibration, at a concentration of 30 mM, close to the typical concentration employed for the biological evaluations (the standard concentration used for O2-dissociation curve measurements is 22 mM).
# Choice of the aqueous phases. […] To be even closer to physiological conditions, we pushed this investigation further by measuring 1-octanol/human serum partition coefficients Kos. […] Therefore, we only measured Kos's when Kow values were significant. To illustrate this observation we compared the partitions of 2 IHP derivatives, SV75 and SV131, in different aqueous systems: water, artificial serum (for its composition, see the Experimental section) without and with albumin, and human serum.
# Human serum was purchased at the “Centre de Transfusion Sanguine de Strasbourg”. Artificial serum was based on blood composition : [Na^+]=140 mM, [Mg^2+]=1 mM, [K^+]=5 mM, [Ca^2+]=1 mM, [Cl^−]=106 mM, [PO4^3−]=1 mM, [SO4^2−]=0.5 mM, [CO3^2−]=30 mM, [Br^−]=0.5 mM, bovine serum albumin (fraction V, >98%) 30 g.l^−1, pH=7.41.
# Partition coefficients. […] 1 ml of 1-octanol was then added and each sample was shaken at 36 rpm during 12 hours. The equilibrated biphasic solutions were centrifuged for 2 hours at 3000 rpm. 350 μl of the octanolic phase was first taken off with a syringe and put directly in the NMR tube. 350 μl of the aqueous phase was then taken off. ^31P-NMR spectra were performed on a Bruker AC-300 apparatus. An external standard (triphenylphosphine oxide, 60 mM in d6-DMSO) was placed inside the NMR tubes to allow both the locking process of the apparatus and an accurate integration of IHP peaks. Partition coefficients were determined as the ratio of IHP integrations, relative to the external standard, in the octanol and aqueous phases.
# whole blood [3] = assay: P50 shift on whole blood, first library (Hb-O2 dissociation curve); assay type: cell-based; settings: 220 mOsM, control IHP sodium form, 37° C.
# Protocol: In FIG. 14 the different IHP derivatives have been classified by amine types, the number of cations per IHP molecule as well as the reference number are indicated beside each amine drawings. The P50 shift values have to be compared to the control experiment (underlined), corresponding to a test performed in the same conditions but with IHP, sodium form. P50 values have been measured in Professor Nicolau's laboratory in Boston (bioassay conditions: 75 μl of whole blood was incubated 2 minutes with 300 μl of a 50 mM solution of IHP derivatives. The system was then washed and 20 μl were used for measurement of the Hb-O2 dissociation curve at 37° C.). See also FIGS. 15-17 for tables of P50 values at various osmolarities of whole blood, and free hemoglobin that has been pre-incubated with various ammonium salts of inositol hexaphosphate.
# red blood cells = assay: hemolysis of red blood cells on incubation of whole blood with effector; assay type: cell-based
# Protocol: as §1
# [4] = 0.25 umoles EFF, control P50 16 mmHg, 37° C.
# [5] = 1-octanol/water, concentration of 30 mM
# Chain of Free Hemoglobin (P68871 2-147 limits assumed): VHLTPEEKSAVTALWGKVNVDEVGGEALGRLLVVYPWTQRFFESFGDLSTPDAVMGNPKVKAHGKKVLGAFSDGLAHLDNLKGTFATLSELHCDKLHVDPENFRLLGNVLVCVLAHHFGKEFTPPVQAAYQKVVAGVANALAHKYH
# Chain of Free Hemoglobin (P69905 2-142 partner limits assumed): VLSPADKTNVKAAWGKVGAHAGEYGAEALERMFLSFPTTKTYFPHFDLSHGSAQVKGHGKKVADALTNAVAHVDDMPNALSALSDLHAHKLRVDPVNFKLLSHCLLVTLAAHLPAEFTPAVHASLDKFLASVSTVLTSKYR
# Chain of stripped hemoglobin (P68871 2-147 limits assumed): as the sequence (P68871 2-147 limits assumed) above
# Chain of stripped hemoglobin (P69905 2-142 partner limits assumed): as the sequence (P69905 2-142 partner limits assumed) above
compound,measurement,setting,value
"C1CCC(NCCN(CCNC2CCCCC2)CCNC2CCCCC2)CC1.C1CCC(NCCN(CCNC2CCCCC2)CCNC2CCCCC2)CC1.C1CCC(NCCN(CCNC2CCCCC2)CCNC2CCCCC2)CC1.O=P(O)(O)O[C@H]1[C@H](OP(=O)(O)O)[C@@H](OP(=O)(O)O)[C@H](OP(=O)(O)O)[C@@H](OP(=O)(O)O)[C@H]1OP(=O)(O)O [SV102, Inositol hexaphosphate, tris tri-(N-cyclohexyl-2-amino-ethyl)-ammonium salt]",P50 mmHg EFF (free hemoglobin),Free Hemoglobin; [4],41.0 mmHg
same,P50 mmHg EFF:WB,"whole blood [1]; effector 82 mOsM, EFF:WB 1:0.375, pH 7.2-7.3, control 41.5",75.0 mmHg
same,P50 mmHg EFF:WB,"whole blood [1]; effector 321 mOsM, EFF:WB 1:1.5, pH 7.2-7.3, control 40.5",39.5 mmHg
"O=C(O)C(COP(=O)(O)O)OP(=O)(O)O (stereo not shown) [2,3-Diphosphoglycerate]",half-saturation pressure P(O2) (½) of stripped hemoglobin,"stripped hemoglobin; 25 C., stripped hemoglobin alone 4.3",12.0 mm Hg
same,half-saturation pressure P(O2) (½) of stripped hemoglobin,"stripped hemoglobin; 37 C., stripped hemoglobin alone 9.3",23.7 mm Hg
"NC1CCCCCC1 [SV75, Inositol hexaphosphate, nona-cycloheptylammonium salt]",Koas (artificial serum with albumin),"[2]; 1-octanol/artificial serum with albumin, at 18 mM",0.041
same,Koa (artificial serum without albumin),"[2]; 1-octanol/artificial serum without albumin, at 18 mM",0.088
same,Kos (human serum),"[2]; 1-octanol/human serum, at 18 mM",0.031
same,Kow (water),"[2]; 1-octanol/water, at 18 mM",0.411
"C1CCC(N2CCCCC2)CC1.C1CCC(N2CCCCC2)CC1.C1CCC(N2CCCCC2)CC1.C1CCC(N2CCCCC2)CC1.C1CCC(N2CCCCC2)CC1.C1CCC(N2CCCCC2)CC1.C1CCC(N2CCCCC2)CC1.C1CCC(N2CCCCC2)CC1.C1CCC(N2CCCCC2)CC1.O=P(O)(O)O[C@H]1[C@H](OP(=O)(O)O)[C@@H](OP(=O)(O)O)[C@H](OP(=O)(O)O)[C@@H](OP(=O)(O)O)[C@H]1OP(=O)(O)O [SV 97, Inositol hexaphosphate, nona N-cyclohexyl-piperidinium salt]",P50 mmHg EFF (free hemoglobin),Free Hemoglobin; [4],46.7 mmHg
same,P50 mmHg EFF:WB,"whole blood [1]; effector 111 mOsM, EFF:WB 1:0.375, pH 7.2-7.3, control 41.5",49.7 mmHg
same,P50 mmHg EFF:WB,"whole blood [1]; effector 343 mOsM, EFF:WB 1:1.5, pH 7.2-7.3, control 40.5",40.0 mmHg
"NC1CCCCC1.NC1CCCCC1.NC1CCCCC1.NC1CCCCC1.NC1CCCCC1.NC1CCCCC1.NC1CCCCC1.NC1CCCCC1.NC1CCCCC1.NC1CCCCC1.NC1CCCCC1.O=P(O)(O)OC1C(OP(=O)(O)O)C(OP(=O)(O)O)C(OP(=O)(O)O)C(OP(=O)(O)O)C1OP(=O)(O)O (stereo not shown) [SV81, Inositol hexaphosphate, undeca-cyclohexylammonium salt]",shift of the P50 value (compared to the control experiment),whole blood [3],50%
"Inositol hexaphosphate, penta cyclohexyl-(1,3-bismethylammonium) salt [SV 94]",P50 mmHg EFF (free hemoglobin),Free Hemoglobin; [4],41.0 mmHg
"NC1CCCCC1.NC1CCCCC1.NC1CCCCC1.NC1CCCCC1.NC1CCCCC1.NC1CCCCC1.NC1CCCCC1.NC1CCCCC1.NC1CCCCC1.O=P([O-])([O-])OC1C(OP(=O)([O-])O)C(OP(=O)(O)O)C(OP(=O)(O)O)C(OP(=O)(O)O)C1OP(=O)(O)O.[Na+].[Na+].[Na+] (stereo not shown) [ICP6, nona cyclohexylammonium tri sodium inositol hexaphosphate]",P50 EFF:WB,"whole blood [1]; EFF 30 mM, EFF:WB 22 mM, 220 mOsM, pH 7.23, ratio 1:0.375, control WB 27.5, 37 C.",39 mmHg
"CCC(C)C(N)C(=O)OC(C)(C)C.CCC(C)C(N)C(=O)OC(C)(C)C.CCC(C)C(N)C(=O)OC(C)(C)C.CCC(C)C(N)C(=O)OC(C)(C)C.CCC(C)C(N)C(=O)OC(C)(C)C.CCC(C)C(N)C(=O)OC(C)(C)C.CCC(C)C(N)C(=O)OC(C)(C)C.CCC(C)C(N)C(=O)OC(C)(C)C.O=P(O)(O)OC1C(OP(=O)(O)O)C(OP(=O)(O)O)C(OP(=O)(O)O)C(OP(=O)(O)O)C1OP(=O)(O)O (stereo not shown) [SV57, Inositol hexaphosphate, octa isoleucine-tbuthyl-ester]",hemolysis of red blood cells,red blood cells; first library bioassay on whole blood,fast hemolysis
NC1CCCCCCC1 [cyclooctylammoniums],equivalents of cyclooctylammoniums required to reach a Kos value equal to 1,"[2]; constant IHP concentration 22 mM, human serum/octanol, IHP sodium salt in serum, ammonium hydrochloride in organic phase",8 equivalents
"Inositol hexaphosphate, octa menthyl-1,8-diammonium salt [SV 89]",P50 mmHg EFF (free hemoglobin),Free Hemoglobin; [4],41.7 mmHg
"NC1CCCC1.NC1CCCC1.NC1CCCC1.NC1CCCC1.NC1CCCC1.NC1CCCC1.NC1CCCC1.NC1CCCC1.NC1CCCC1.NC1CCCC1.NC1CCCC1.O=P(O)(O)OC1C(OP(=O)(O)O)C(OP(=O)(O)O)C(OP(=O)(O)O)C(OP(=O)(O)O)C1OP(=O)(O)O (stereo not shown) [SV78, Inositol hexaphosphate, undeca-cyclopentylammonium salt]",Kow,[2]; [5],< 10^−3
"C1CCCC(NCCN(CCNC2CCCCCC2)CCNC2CCCCCC2)CC1.C1CCCC(NCCN(CCNC2CCCCCC2)CCNC2CCCCCC2)CC1.C1CCCC(NCCN(CCNC2CCCCCC2)CCNC2CCCCCC2)CC1.O=P(O)(O)O[C@H]1[C@H](OP(=O)(O)O)[C@@H](OP(=O)(O)O)[C@H](OP(=O)(O)O)[C@@H](OP(=O)(O)O)[C@H]1OP(=O)(O)O [SV137, Inositol hexaphosphate, tris tri-(N-cycloheptyl-2-amino-ethyl)-ammonium salt]",Kos,"[2]; 1-octanol/human serum, concentration of 30 mM",0.64
same,Kow,[2]; [5],2.70
same,P50 mmHg EFF:WB,"whole blood [1]; effector 268 mOsM, EFF:WB 1:0.375, pH 7.2-7.3, control 29.5",32.0 mmHg
"NC1CCCCC1N.NC1CCCCC1N.NC1CCCCC1N.NC1CCCCC1N.NC1CCCCC1N.O=P(O)(O)O[C@H]1[C@H](OP(=O)(O)O)[C@@H](OP(=O)(O)O)[C@H](OP(=O)(O)O)[C@@H](OP(=O)(O)O)[C@H]1OP(=O)(O)O [SV 92, Inositol hexaphosphate, penta (±)-(trans)-1,2-cyclohexyldiammonium salt]",P50 mmHg EFF (free hemoglobin),Free Hemoglobin; [4],45.0 mmHg
same,P50 mmHg EFF:WB,"whole blood [1]; effector 84 mOsM, EFF:WB 1:0.375, pH 7.2-7.3, control 41.4",58.5 mmHg
same,P50 mmHg EFF:WB,"whole blood [1]; effector 336 mOsM, EFF:WB 1:1.5, pH 7.2-7.3, control 40.5",38.7 mmHg
"C1CCCC(NCCCN2CCN(CCCNC3CCCCCCC3)CC2)CCC1.C1CCCC(NCCCN2CCN(CCCNC3CCCCCCC3)CC2)CCC1.C1CCCC(NCCCN2CCN(CCCNC3CCCCCCC3)CC2)CCC1.O=P(O)(O)O[C@H]1[C@H](OP(=O)(O)O)[C@@H](OP(=O)(O)O)[C@H](OP(=O)(O)O)[C@@H](OP(=O)(O)O)[C@H]1OP(=O)(O)O [SV141, Inositol hexaphosphate, tri N,N′-di-(3-(N-cyclooctyl-amino)-propyl)-piperazinium salt]",P50 mmHg EFF (free hemoglobin),"Free Hemoglobin; ratio 1:1 (2.5 mM:2.5 mM), pH 7.1-7.2, control P50 10.5 mmHg",22.0 mmHg
same,lysis of whole blood incubated with effector,"red blood cells; WB, EFF:WB 1:0.375, no sufficient RBC pellet",Lyses
same,P50 mmHg EFF:WB,"whole blood [1]; effector 221 mOsM, EFF:WB 1:1.5, pH 7.1-7.2, control 25",25.0 mmHg
